According to patent US20210169113A1, “COMPOSITION FOR IMPROVING INTESTINAL FLORA” (Hosoda SHC Co., Ltd., priority 2018, published 2021):
Read-outs that look alike come from different tables or passages of the source.

Assays:
[1] = HPLC of excrement for gnetin C and glycosides (Test Example 7); conditions: 14 weeks
Protocol: (§1) Seven mice were fed ad libitum with the test diet in which 0.5% of gnemonoside A separated and purified in Example 2 was included in the high-fat diet in an amount of 5 g/mouse/day for 14 consecutive weeks, and then 10 mg of their excrement was collected. The excrement thus collected and 10 mg of the excrement collected in Test example 4 were each added with methanol (acetonitrile aqueous solution), suspended by an ultrasonic treatment, and then filtered. The filtrate was washed with hexane and passed through an ODS cartridge, and 20 μL of the elute was applied to an HPLC apparatus.

[2] = mouse, in vivo
Protocol: as §1

For gnemonoside A, the “Fate in the intestinal tract” value ([1]; 0.5% in high-fat diet) was “hydrolyzed and changed to gnetin C in the intestinal tract” and the “Peaks in HPLC chromatogram of the excrement” value ([1]; 0.5% of substance in high-fat diet, mice excrement) was “peaks of gnetin C and the monoglucuronide, but not a peak of gnemonoside A, C, or D”.
In the case of `Oc1ccc(/C=C/c2cc(O)c3c(c2)OC(c2ccc(O)cc2)C3c2cc(O)cc(O)c2)cc1` (stereo not drawn) [gnetin C], the “Peaks in HPLC chromatogram of the excrement” value [2] is reported as “peaks of gnetin C and monoglucuronic acid conjugate of gnetin C”.
